According to patent US8741871B2, “Trehalose compound, method for producing same, and pharmaceutical product containing the compound” (priority 2008, dated 2014):

Key:
THP-1 cells = experiment: Analysis of cytotoxicity to THP-1 cells using trypan blue; format: cell-based, human; conditions: treated for 2 hours and for 24 hours; FIG. 10
Experimental: The cultured THP-1 cells were transferred into a 50-ml centrifuge tube in a clean bench. The cells were then centrifuged at 1,000 rpm for 5 minutes at 20° C., and the supernatant was then removed. […] 10 μl of this cell suspension was added to a sterile Eppendorf tube, to which 990 μl of serum-free RPMI 1640 medium had previously been added, so that the solution was 100-fold diluted. The number of cells in 10 μl of the 100-fold diluted solution was counted with a blood cell counter, and the cell suspension was diluted with serum-free RPMI 1640 medium to a cell density of 1×10^7 cells/ml.
A test compound (Example 9)/DMSO solution, or DMSO was added to 100 μl of RPMI medium to a concentration of 200 μM. Thereafter, ultrasonic wave was applied to the mixture for 5 seconds. It is to be noted that a test compound, 6-O-(2-decyldecanoyl)-α-glucose (hereinafter referred to as a “control compound B”), and TDCM were used to prepare positive controls in the same manner as described above. In addition, a negative control was prepared by adding no test compounds (vehicle). […] Subsequently, 20 μl of 0.3% trypan blue/PBS (−) was added to the reaction solution so as to suspend the reaction solution therein, and thereafter, the survival rate of the cells was immediately analyzed using a cell number measuring apparatus (CYRORECON).

[1] = tested on: Welch bacillus (Type A; NTCT8237); format: in vivo; conditions: 100 μg/mouse i.p. three hours before Welch bacillus 2.4×10^7 cells/mouse i.p.
Experimental: As test compounds, 1 mg each of the compound synthesized by the method described in Production Example α-1 and TDCM were weighed. Emulsion solutions of the test compounds (1 mg/ml) were prepared in the same manner as described above.
[…] of Brain Heart Infusion (BHI) (Difco) powders were dissolved in 200 ml of distilled water. 40 ml of the obtained solution (hereinafter this solution is referred to as a “BHI medium”) was withdrawn with a measuring pipette, and it was then added to a 200-ml flask, followed by performing a high-pressure steam sterilization (121° C., 20 minutes). In addition, 5 ml of the BHI medium was added to two screw-top test tubes, and they were then subjected to a high-pressure steam sterilization. Moreover, a glass tube-equipped rubber plug (with a cotton plug) and a glass tube were also subjected to a high-pressure steam sterilization. In a clean bench, an appropriate amount of bacteria for preservation, which had grown on a cooked meat medium, was collected with a sterilized Pasteur pipette, and it was then inoculated on the BHI medium in the aforementioned sterilized screw-top test tube. Subsequently, it was incubated at 37° C. overnight.
In a clean bench, bacteria that had grown in the screw-top test tube (wherein the inside of the […] in which bacteria had grown became clouded, and gas was generated) was transferred into a 200-ml Erlenmeyer flask, which contained 40 ml of BHI medium. A glass tube was inserted into the medium, so as to carry out nitrogen substitution for 10 minutes. Subsequently, the glass tube-equipped rubber plug (with a cotton plug) was equipped in the Erlenmeyer flask (since Welch bacillus generates gas, it is necessary to make an air vent), and incubation was then carried out at 37° C. for 4 to 5 hours. Thereafter, the cultured Welch bacillus was transferred into a centrifuge tube, it was then centrifuged (9000 rpm, 15 minutes), and the supernatant was then removed. 20 ml of sterilized normal saline solution was added to the precipitate, so that the bacteria were suspended therein. The suspension was centrifuged (9000 rpm, 15 minutes), and the supernatant was then removed.
Mice (ICR, 6-week-old) were divided into three groups, and the following test was then carried out.
An emulsion solution containing the test compound, an emulsion solution containing TDCM, or an emulsion solution alone, which was to be used as a control, was intraperitoneally administered in an amount of 100 μg/mouse to a group of four mice (100 μl/mouse, in the case of the emulsion solution alone). Three hours later, Welch bacillus (2.4×10^7 cells/mouse) was intraperitoneally administered to the mice. Thereafter, the condition of the mice was observed.

[2] = tested on: Welch bacillus toxin (recombinant α-toxin); conditions: in vivo, ip
[3] = tested on: IL-6, TNF-α, IFN-γ in mouse plasma; experiment: Measurement of IL-6, TNF-α and IFN-γ released into peripheral blood of test compound administered mouse; conditions: 100 μg/mouse intravenous, two hours later; for IL-6-releasing activity (mouse plasma IL-6 concentration) compared with TDCM: FIG. 6; for IFN-γ-releasing activity (mouse plasma IFN-γ concentration) compared with TDCM: FIG. 7
[4] = tested on: Salmonella typhmurium TA98; experiment: Mutagenicity test (Ames test); conditions: TA98, in the presence or absence of S9 mix; FIG. 11

Question: With `CCCCCCCCCCC(CCCCCCCC)C(=O)OC[C@H]1O[C@H](O)[C@H](O)[C@@H](O)[C@@H]1O` (stereo partly drawn) [control compound B, 6-O-(2-decyldecanoyl)-α-glucose, reference compound] as the molecule, how does the “cytotoxicity to THP-1 cells (survival rate, trypan blue staining)” value (THP-1 cells) read?
Answer: cytotoxicity was observed

Question: How did the “Number of surviving mice/number of treated mice, 2 hours later” value ([1]; 2 hours later) turn out when `CCCCCCCCCCCCCCC[C@@H](O)[C@@H](CCCCCCCCCCCCCC)C(=O)OC[C@H]1O[C@H](O[C@H]2O[C@H](COC(=O)[C@H](CCCCCCCCCCCCCC)[C@H](O)CCCCCCCCCCCCCCC)[C@@H](O)[C@H](O)[C@H]2O)[C@H](O)[C@@H](O)[C@@H]1O` [TDCM, trehalose dicorynomycolate, reference compound] was run?
Answer: 4/4

Question: And the “Number of surviving mice/number of treated mice, 6 hours later” value ([1]; 6 hours later)?
Answer: 4/4

Question: And the “Number of surviving mice/number of treated mice, 12 hours later” value ([1]; 12 hours later)?
Answer: 4/4

Question: What about the “Number of surviving mice/number of treated mice, 24 hours later” value ([1]; 24 hours later) of the same molecule?
Answer: 4/4

Question: What about the “Number of surviving mice/number of treated mice, 48 hours later” value ([1]; 48 hours later) of the same molecule?
Answer: 4/4

Question: What about the “Number of surviving mice/number of treated mice, 2 hours later” value [2] of the same molecule?
Answer: 4/4

Question: What about the “Number of surviving mice/number of treated mice, 6 hours later” value [2] of the same molecule?
Answer: 4/4

Question: What about the “Number of surviving mice/number of treated mice, 12 hours later” value [2] of the same molecule?
Answer: 4/4

Question: What about the “Number of surviving mice/number of treated mice, 24 hours later” value [2] of the same molecule?
Answer: 2/4

Question: And the “Number of surviving mice/number of treated mice, 48 hours later” value [2]?
Answer: 2/4

Question: With `CCCCCCCCCCCCCCC(CCCCCCCCCCCCCC)CC(=O)OCC1O[C@H](O[C@H]2OC(COC(=O)CC(CCCCCCCCCCCCCC)CCCCCCCCCCCCCC)[C@@H](O)C(O)C2O)C(O)C(O)[C@@H]1O` (stereo partly drawn) [Example 14, 6,6′-bis-O-(3-tetradecylheptadecanoyl)-α,α′-trehalose] as the molecule, how does the “IL-6-releasing activity (mouse plasma IL-6 concentration) compared with TDCM” value [3] read?
Answer: approximately equivalent to

Question: And the “IFN-γ-releasing activity (mouse plasma IFN-γ concentration) compared with TDCM” value [3]?
Answer: approximately equivalent to

Question: With `CCCCCCCCCCCCCC(CCCCCCCCCCCCC)CC(=O)OCC1O[C@H](O[C@H]2OC(COC(=O)CC(CCCCCCCCCCCCC)CCCCCCCCCCCCC)[C@@H](O)C(O)C2O)C(O)C(O)[C@@H]1O` (stereo partly drawn) [Example 13, 6,6′-bis-O-(3-tridecylhexadecanoyl)-α,α′-trehalose] as the molecule, how does the “IL-6-releasing activity (mouse plasma IL-6 concentration) compared with TDCM” value [3] read?
Answer: approximately a half of

Question: And the “IFN-γ-releasing activity (mouse plasma IFN-γ concentration) compared with TDCM” value [3]?
Answer: approximately a half of

Question: With `Nc1ccc2cc3ccccc3cc2c1` [2-aminoanthracene, reference compound] as the molecule, how does the “mutagenicity (Ames test, number of His colonies)” value [4] read?
Answer: positive
